Experimental data published in PubChem BioAssay AID330 (DTP/NCI, 2004).
“And” between values parts separate entries of the source, which are not always exact repeats. Identical values can stand only once. Toxic doses and inconclusive results are not listed. Rule for the calls: active = survival T/C of 150% or more; inactive = T/C below 125% in these data.

Test system: P388 leukemia ip, CD2F1 mice, survival T/C
Assay: NCI In Vivo Anticancer Drug Screen. Data for tumor model P388 Leukemia (intraperitoneal) in CD2F1 (CDF1) mice
Conditions: endpoint: median survival time, higher = longer survival
Summary of the method: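 Mice carrying the transplanted tumor received test compound or vehicle. Survival was recorded in each group, and the value is the treated-group measurement divided by that of the vehicle-treated control group.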

[1] = dose: 50.0 mg/kg/injection, schedule: Q01DX009 (ip), vehicle: saline with Tween-80
[2] = dose: 100.0 mg/kg/injection, schedule: Q01DX009 (ip), vehicle: saline with Tween-80
[3] = dose: 200.0 mg/kg/injection, schedule: Q01DX009 (ip), vehicle: saline with Tween-80
[4] = dose: 400.0 mg/kg/injection, schedule: Q01DX009 (ip), vehicle: saline with Tween-80
[5] = dose: 50.0 mg/kg/injection, schedule: Q01DX005 (ip), vehicle: Klucel (hydroxypropylcellulose) (HPC)
[6] = dose: 100.0 mg/kg/injection, schedule: Q01DX005 (ip), vehicle: Klucel (hydroxypropylcellulose) (HPC)
[7] = dose: 200.0 mg/kg/injection, schedule: Q01DX005 (ip), vehicle: Klucel (hydroxypropylcellulose) (HPC)

Measured: T/C

COc1cc(CC2C(=O)OCC2Cc2ccc3c(c2)OCO3)cc(OC)c1OC (stereo unspecified)
inactive: dose: 12.5 mg/kg/injection, schedule: Q01DX009 (ip), vehicle: saline with Tween-80 98 % of control | dose: 25.0 mg/kg/injection, schedule: Q01DX009 (ip), vehicle: saline with Tween-80 104 % of control | [1] 100 % of control | dose: 50.0 mg/kg/injection, schedule: Q04DX002 (ip), vehicle: acetone 94 % of control | dose: 50.0 mg/kg/injection, schedule: Q04DX002 (ip), vehicle: saline with Tween-80 103 % of control | dose: 100.0 mg/kg/injection, schedule: Q04DX002 (ip), vehicle: acetone 100 % of control | dose: 100.0 mg/kg/injection, schedule: Q04DX002 (ip), vehicle: saline with Tween-80 100 % of control | dose: 200.0 mg/kg/injection, schedule: Q04DX002 (ip), vehicle: acetone 100 % of control | dose: 200.0 mg/kg/injection, schedule: Q04DX002 (ip), vehicle: saline with Tween-80 100 % of control

Cc1cc(N(CCCl)CCCl)ccc1C=Nc1ccccc1-c1ccccc1
active: dose: 400.0 mg/kg/injection, schedule: Q01DX009 (ip), vehicle: Klucel (hydroxypropylcellulose) (HPC) 155 % of control | dose: 600.0 mg/kg/injection, schedule: Q01DX009 (ip), vehicle: Klucel (hydroxypropylcellulose) (HPC) 170 % of control

COc1ccc2[nH]c3c(C)c4ccn5c(=O)c6ccccc6cc5c4c(C)c3c2c1
inactive: dose: 0.1 mg/kg/injection, schedule: Q04DX003 (ip), vehicle: distilled water + Tween-80 87 % of control | dose: 0.2 mg/kg/injection, schedule: Q04DX003 (ip), vehicle: distilled water + Tween-80 100 % of control | dose: 0.4 mg/kg/injection, schedule: Q04DX003 (ip), vehicle: distilled water + Tween-80 91 % of control | dose: 0.78 mg/kg/injection, schedule: Q04DX003 (ip), vehicle: distilled water + Tween-80 87 % of control | dose: 0.8 mg/kg/injection, schedule: Q04DX003 (ip), vehicle: distilled water + Tween-80 92 % of control | dose: 200.0 mg/kg/injection, schedule: Q04DX003 (ip), vehicle: distilled water + Tween-80 91 % of control

COc1ccc2c(c1)c(C(=O)O)cc(=O)n2C
inactive: [2] 95 % of control | [3] 90 % of control | [4] 90 % of control

C=C1C(=O)C23C(O)CC4C(C)(C)C(OC(C)=O)C(OC(C)=O)CC4(C)C2CCC1C3O (stereo unspecified)
inactive: dose: 11.88 mg/kg/injection, schedule: Q01DX005 (ip), vehicle: Klucel (hydroxypropylcellulose) (HPC) 115 % of control | dose: 23.75 mg/kg/injection, schedule: Q01DX005 (ip), vehicle: Klucel (hydroxypropylcellulose) (HPC) 112 % of control | dose: 47.5 mg/kg/injection, schedule: Q01DX005 (ip), vehicle: Klucel (hydroxypropylcellulose) (HPC) 112 % of control

N#Cc1ccc(Br)cc1[N+](=O)[O-]
inactive: dose: 0.78 mg/kg/injection, schedule: Q01DX009 (ip), vehicle: Klucel (hydroxypropylcellulose) (HPC) 106 % of control | dose: 1.56 mg/kg/injection, schedule: Q01DX009 (ip), vehicle: Klucel (hydroxypropylcellulose) (HPC) 102 % of control | dose: 3.12 mg/kg/injection, schedule: Q01DX009 (ip), vehicle: Klucel (hydroxypropylcellulose) (HPC) 100 % of control and 96 % of control

CN(C)c1ccc(Sc2ccc3nc(N)nc(N)c3c2)cc1
active: [3] 174 % of control
inactive: [1] 95 % of control | [4] 117 % of control

COc1ccc2c(c1)C1(C)CCN(C)CC(C1)C2O (stereo unspecified)
inactive: [1] 96 % of control and 104 % of control | [2] 91 % of control and 87 % of control | [3] 117 % of control

C=CCC(CCC)(C(=O)Nc1ccc2nc(C)cc(N)c2c1)C(=O)Nc1ccc2nc(C)cc(N)c2c1
inactive: dose: 50.0 mg/kg/injection, schedule: Q01DX005 (ip), vehicle: saline with Tween-80 100 % of control | dose: 100.0 mg/kg/injection, schedule: Q01DX005 (ip), vehicle: saline with Tween-80 93 % of control

CCOP(=O)(CSc1ccccc1)NC1CCCCC1 (stereo unspecified)
inactive: dose: 25.0 mg/kg/injection, schedule: Q01DX005 (ip), vehicle: Klucel (hydroxypropylcellulose) (HPC) 94 % of control | [5] 94 % of control | [6] 88 % of control

CNC(=O)N=Nc1ccccc1
inactive: dose: 50.0 mg/kg/injection, schedule: Q01DX005 (ip), vehicle: saline + Tween-80 + alcohol 100 % of control | dose: 100.0 mg/kg/injection, schedule: Q01DX005 (ip), vehicle: saline + Tween-80 + alcohol 100 % of control | dose: 200.0 mg/kg/injection, schedule: Q01DX005 (ip), vehicle: saline + Tween-80 + alcohol 100 % of control

C=CCC1(O)CC2NC(C1)[C@@H]1OC(C)(C)O[C@H]21 (stereo partly specified)
inactive: [5] 92 % of control | [6] 87 % of control | [7] 94 % of control

CC1=C(C2CO2)C(=O)c2ccccc2C1=O (stereo unspecified)
inactive: dose: 1.56 mg/kg/injection, schedule: Q01DX005 (ip), vehicle: Klucel (hydroxypropylcellulose) (HPC) 104 % of control and 107 % of control | dose: 3.12 mg/kg/injection, schedule: Q01DX005 (ip), vehicle: Klucel (hydroxypropylcellulose) (HPC) 103 % of control and 104 % of control | dose: 6.25 mg/kg/injection, schedule: Q01DX005 (ip), vehicle: Klucel (hydroxypropylcellulose) (HPC) 99 % of control and 100 % of control and 94 % of control

CCO/C=C1/N=C(Cc2ccccc2)OC1=O
inactive: dose: 60.0 mg/kg/injection, schedule: Q01DX005 (ip), vehicle: saline + Tween-80 + alcohol 100 % of control | dose: 120.0 mg/kg/injection, schedule: Q01DX005 (ip), vehicle: saline + Tween-80 + alcohol 94 % of control

CC12CCC(=O)C=C1CCC1C2CCC2(C)C(OC(=O)C34C=CC(=O)C3C3C=CC4CC3)CCC12 (stereo unspecified)
inactive: dose: 25.0 mg/kg/injection, schedule: Q01DX005 (ip), vehicle: distilled water + Tween-80 95 % of control | dose: 50.0 mg/kg/injection, schedule: Q01DX005 (ip), vehicle: distilled water + Tween-80 92 % of control

O=S(=O)(O)CC(O)CN1CCN(CCO)CC1 (stereo unspecified)
inactive: dose: 60.0 mg/kg/injection, schedule: Q01DX005 (ip), vehicle: saline 100 % of control | dose: 120.0 mg/kg/injection, schedule: Q01DX005 (ip), vehicle: saline 100 % of control | dose: 240.0 mg/kg/injection, schedule: Q01DX005 (ip), vehicle: saline 98 % of control

CN1C(=O)C23CCCCN2CC12CC1(C(=O)Nc4c1ccc1c4OC=CC(C)(C)O1)C(C)(C)C2C3 (stereo unspecified)
inactive: dose: 0.37 mg/kg/injection, schedule: Q01DX009 (ip), vehicle: Klucel (hydroxypropylcellulose) (HPC) 100 % of control | dose: 0.75 mg/kg/injection, schedule: Q01DX009 (ip), vehicle: Klucel (hydroxypropylcellulose) (HPC) 102 % of control | dose: 1.5 mg/kg/injection, schedule: Q01DX009 (ip), vehicle: Klucel (hydroxypropylcellulose) (HPC) 100 % of control | dose: 3.0 mg/kg/injection, schedule: Q01DX009 (ip), vehicle: Klucel (hydroxypropylcellulose) (HPC) 100 % of control | dose: 4.5 mg/kg/injection, schedule: Q01DX009 (ip), vehicle: Klucel (hydroxypropylcellulose) (HPC) 96 % of control | dose: 9.0 mg/kg/injection, schedule: Q01DX009 (ip), vehicle: Klucel (hydroxypropylcellulose) (HPC) 98 % of control | dose: 18.0 mg/kg/injection, schedule: Q01DX009 (ip), vehicle: Klucel (hydroxypropylcellulose) (HPC) 100 % of control

CC(C)NC(C)C(C)c1ccccc1 (stereo unspecified)
inactive: dose: 25.0 mg/kg/injection, schedule: Q04DX003 (ip), vehicle: saline 99 % of control | dose: 50.0 mg/kg/injection, schedule: Q01DX001 (ip), vehicle: saline 94 % of control | dose: 50.0 mg/kg/injection, schedule: Q04DX003 (ip), vehicle: saline 100 % of control | dose: 100.0 mg/kg/injection, schedule: Q01DX001 (ip), vehicle: saline 96 % of control | dose: 100.0 mg/kg/injection, schedule: Q04DX003 (ip), vehicle: saline 93 % of control

COc1cc2c(cc1OC)C(c1ccccc1[N+](=O)[O-])=NCC2
inactive: [5] 99 % of control | [6] 94 % of control | [7] 92 % of control

[Cl][Sn]1([Cl])[CH2]CC[CH2][Sn]([Cl])([Cl])[CH2]CC[CH2][Sn]([Cl])([Cl])[CH2]CC[CH2][Sn]([Cl])([Cl])[CH2]CC[CH2]1
inactive: dose: 50.0 mg/kg/injection, schedule: Q01DX005 (ip), vehicle: saline 93 % of control | dose: 100.0 mg/kg/injection, schedule: Q01DX005 (ip), vehicle: saline 92 % of control | dose: 200.0 mg/kg/injection, schedule: Q01DX005 (ip), vehicle: saline 102 % of control

CC(C)(C)c1cc(C2C(=O)c3ccccc3C2=O)cc(C(C)(C)C)c1O
inactive: dose: 100.0 mg/kg/injection, schedule: Q04DX002 (ip), vehicle: saline 110 % of control | dose: 200.0 mg/kg/injection, schedule: Q04DX002 (ip), vehicle: saline 107 % of control | dose: 400.0 mg/kg/injection, schedule: Q04DX002 (ip), vehicle: saline 107 % of control

CC(C)CSc1nc2ccc(NC(=O)/C=C/C(=O)O)cc2s1
inactive: dose: 50.0 mg/kg/injection, schedule: Q01DX009 (ip), vehicle: Klucel (hydroxypropylcellulose) (HPC) 95 % of control | dose: 100.0 mg/kg/injection, schedule: Q01DX009 (ip), vehicle: Klucel (hydroxypropylcellulose) (HPC) 95 % of control
